Data reported in ChEMBL document CHEMBL1138028, “Synthesis and HIV-1 integrase inhibitory activity of dimeric and tetrameric analogs of indolicidin” (Bioorg Med Chem Lett, 2004).

How the values were obtained:
[1] = target: T1, Human immunodeficiency virus type 1 integrase (Human immunodeficiency virus 1, UniProt Q7ZJM1); experiment: Concentration required for inhibition of HIV-1 integrase mediated 3'-end processing
[2] = target: T1, Human immunodeficiency virus type 1 integrase; experiment: Concentration required for inhibition of HIV-1 integrase mediated strand transfer

T1 sequence (Q7ZJM1 whole entry): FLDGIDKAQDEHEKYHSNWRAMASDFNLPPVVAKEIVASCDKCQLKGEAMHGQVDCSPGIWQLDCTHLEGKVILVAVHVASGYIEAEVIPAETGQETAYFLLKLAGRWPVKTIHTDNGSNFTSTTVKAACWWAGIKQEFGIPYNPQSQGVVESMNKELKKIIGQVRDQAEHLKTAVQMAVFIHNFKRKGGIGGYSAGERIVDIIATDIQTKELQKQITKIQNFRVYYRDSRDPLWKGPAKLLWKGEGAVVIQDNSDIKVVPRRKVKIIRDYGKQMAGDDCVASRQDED

Row | Molecule | IC50 [1] | IC50 [2]
1 | CC[C@H](C)[C@H](N)C(=O)N[C@@H](CC(C)C)C(=O)N1CCC[C@H]1C(=O)N[C@@H](Cc1c[nH]c2ccccc12)C(=O)N[C@@H](CCCCN)C(=O)N[C@@H](Cc1c[nH]c2ccccc12)C(=O)N1CCC[C@H]1C(=O)N[C@@H](Cc1c[nH]c2ccccc12)C(=O)N[C@@H](Cc1c[nH]c2ccccc12)C(=O)N1CCC[C@H]1C(=O)N[C@@H](Cc1c[nH]c2ccccc12)C(=O)N1CCC[C@H]1C(=O)N1CCC[C@H]1C(=O)NCCCCC(NC(=O)[C@@H]1CCCN1C(=O)[C@@H]1CCCN1C(=O)[C@H](Cc1c[nH]c2ccccc12)NC(=O)[C@@H]1CCCN1C(=O)[C@H](Cc1c[nH]c2ccccc12)NC(=O)[C@H](Cc1c[nH]c2ccccc12)NC(=O)[C@@H]1CCCN1C(=O)[C@H](Cc1c[nH]c2ccccc12)NC(=O)[C@H](CCCCN)NC(=O)[C@H](Cc1c[nH]c2ccccc12)NC(=O)[C@@H]1CCCN1C(=O)[C@H](CC(C)C)NC(=O)[C@@H](N)[C@@H](C)CC)C(=O)NCCCCC(NC(=O)C(CCCCNC(=O)[C@@H]1CCCN1C(=O)[C@@H]1CCCN1C(=O)[C@H](Cc1c[nH]c2ccccc12)NC(=O)[C@@H]1CCCN1C(=O)[C@H](Cc1c[nH]c2ccccc12)NC(=O)[C@H](Cc1c[nH]c2ccccc12)NC(=O)[C@@H]1CCCN1C(=O)[C@H](Cc1c[nH]c2ccccc12)NC(=O)[C@H](CCCCN)NC(=O)[C@H](Cc1c[nH]c2ccccc12)NC(=O)[C@@H]1CCCN1C(=O)[C@H](CC(C)C)NC(=O)[C@H](N)[C@@H](C)CC)NC(=O)[C@@H]1CCCN1C(=O)[C@@H]1CCCN1C(=O)[C@H](Cc1c[nH]c2ccccc12)NC(=O)[C@@H]1CCCN1C(=O)[C@H](Cc1c[nH]c2ccccc12)NC(=O)[C@H](Cc1c[nH]c2ccccc12)NC(=O)[C@@H]1CCCN1C(=O)[C@H](Cc1c[nH]c2ccccc12)NC(=O)[C@H](CCCCN)NC(=O)[C@H](Cc1c[nH]c2ccccc12)NC(=O)[C@@H]1CCCN1C(=O)[C@H](CC(C)C)NC(=O)[C@@H](N)[C@@H](C)CC)C(N)=O (stereo not given in full) | 0.6 µM | 0.6 µM
2 | CC[C@H](C)[C@H](N)C(=O)N[C@@H](CC(C)C)C(=O)N1CCC[C@H]1C(=O)N[C@@H](Cc1c[nH]c2ccccc12)C(=O)NCC(=O)N[C@@H](Cc1c[nH]c2ccccc12)C(=O)N1CCC[C@H]1C(=O)N[C@@H](Cc1c[nH]c2ccccc12)C(=O)N[C@@H](Cc1c[nH]c2ccccc12)C(=O)N1CCC[C@H]1C(=O)N[C@@H](Cc1c[nH]c2ccccc12)C(=O)N[C@@H](CCCN=C(N)N)C(=O)N[C@@H](CCCN=C(N)N)C(N)=O | 49 µM | 19 µM
3 | CC[C@H](C)[C@H](N)C(=O)N[C@@H](CC(C)C)C(=O)N1CCC[C@H]1C(=O)N[C@@H](Cc1c[nH]c2ccccc12)C(=O)N[C@@H](CCCCN)C(=O)N[C@@H](Cc1c[nH]c2ccccc12)C(=O)N1CCC[C@H]1C(=O)N[C@@H](Cc1c[nH]c2ccccc12)C(=O)N[C@@H](Cc1c[nH]c2ccccc12)C(=O)N1CCC[C@H]1C(=O)N[C@@H](Cc1c[nH]c2ccccc12)C(=O)N1CCC[C@H]1C(=O)N1CCC[C@H]1C(=O)NCCCCC(NC(=O)[C@@H]1CCCN1C(=O)[C@@H]1CCCN1C(=O)[C@H](Cc1c[nH]c2ccccc12)NC(=O)[C@@H]1CCCN1C(=O)[C@H](Cc1c[nH]c2ccccc12)NC(=O)[C@H](Cc1c[nH]c2ccccc12)NC(=O)[C@@H]1CCCN1C(=O)[C@H](Cc1c[nH]c2ccccc12)NC(=O)[C@H](CCCCN)NC(=O)[C@H](Cc1c[nH]c2ccccc12)NC(=O)[C@@H]1CCCN1C(=O)[C@H](CC(C)C)NC(=O)[C@@H](N)[C@@H](C)CC)C(N)=O (stereo not given in full) | 2.8 µM | 4.9 µM
4 | H-ILPWGWPWWPWPP-NH2 | > 333 µM | > 333 µM
5 | H-ILPWKWPWWPWPP-NH2 | 16 µM | 13 µM
6 | H-LPWKWPWWPWPP-NH2 | 185 µM | 215 µM

Results, then the molecule that gave them:

Row | IC50 [1] | IC50 [2] | Molecule
7 | 2.3 µM | 2.3 µM | CC[C@H](C)[C@@H](N)C(=O)N[C@H](CC(C)C)C(=O)N1CCC[C@@H]1C(=O)N[C@H](Cc1c[nH]c2ccccc12)C(=O)N[C@H](CCCCN)C(=O)N[C@H](Cc1c[nH]c2ccccc12)C(=O)N1CCC[C@@H]1C(=O)N[C@H](Cc1c[nH]c2ccccc12)C(=O)N[C@H](Cc1c[nH]c2ccccc12)C(=O)N1CCC[C@@H]1C(=O)N[C@H](Cc1c[nH]c2ccccc12)C(=O)N1CCC[C@@H]1C(=O)N1CCC[C@@H]1C(=O)NCCCCC(NC(=O)[C@H]1CCCN1C(=O)[C@H]1CCCN1C(=O)[C@@H](Cc1c[nH]c2ccccc12)NC(=O)[C@H]1CCCN1C(=O)[C@@H](Cc1c[nH]c2ccccc12)NC(=O)[C@@H](Cc1c[nH]c2ccccc12)NC(=O)[C@H]1CCCN1C(=O)[C@@H](Cc1c[nH]c2ccccc12)NC(=O)[C@@H](CCCCN)NC(=O)[C@@H](Cc1c[nH]c2ccccc12)NC(=O)[C@H]1CCCN1C(=O)[C@@H](CC(C)C)NC(=O)[C@H](N)[C@@H](C)CC)C(N)=O (stereo not given in full)
8 | 60 µM | 57 µM | CC[C@H](C)[C@H](N)C(=O)N[C@@H](CC(C)C)C(=O)N1CCC[C@H]1C(=O)N[C@@H](Cc1c[nH]c2ccccc12)C(=O)N[C@@H](CCCCN)C(=O)N[C@@H](Cc1c[nH]c2ccccc12)C(=O)N1CCC[C@H]1C(=O)N[C@@H](Cc1c[nH]c2ccccc12)C(=O)N[C@@H](Cc1c[nH]c2ccccc12)C(=O)N1CCC[C@H]1C(=O)N[C@@H](Cc1c[nH]c2ccccc12)C(=O)N[C@@H](CCCN=C(N)N)C(=O)N[C@@H](CCCN=C(N)N)C(N)=O [Indolicidin]
9 | 54 µM | 41 µM | H-ILAWKWAWWAWPP-NH2
10 | 180 µM | 80 µM | H-ILPWKWPWWPWP-NH2
